Results on six molecules are retold here after EPA's ToxRefDB 2.

A word on the LOAEL: it is the lowest dose or exposure tested at which an adverse effect was seen. As a reminder, the NOAEL is the highest tested level that showed no adverse finding.

The test system of data set [1] is rat. The following applies: Subchronic oral toxicity in rodents, sprague dawley, Feed, dose end: 13 week, group: systemic.
For data set [2], the system named is rat. The following applies: Sub-acute repeat dose toxicity; wistar; Oral; Feed; dose end: 21 day; group: systemic; systemic / clinical chemistry / [other] / [other] + systemic / clinical chemistry / 5' nucleotidase / 5' nucleotidase + systemic / organ ….
In data set [3] the test system is rat. The following applies: Prenatal developmental toxicity study, sprague dawley, Oral, Gavage/Intubation, dose end: 20 GD.
The test system of data set [4] is rat. The following applies: Developmental neurotoxicity study; sprague dawley; Injection; Intraperitoneal; dose end: 74 PND; group: cannot be grouped; reproductive / reproductive performance / aborted / aborted + developmental / offspring survival late / [other] / [other] + systemic / in ….
The test system of data set [5] is mouse. The following applies: Carcinogenicity; other; Oral; Feed; dose end: 104 week; group: systemic; systemic / pathology microscopic / liver / vacuolization.
In data set [6] the test system is mouse. The following applies: Subchronic oral toxicity in rodents, Feed, dose end: 90 day, group: systemic.
Data set [7] concerns rat. The following applies: Prenatal developmental toxicity study, other, Oral, Gavage/Intubation, dose end: 15 GD.
Data set [8] has as its system rat. The following applies: Combined chronic toxicity/carcinogenicity, sprague dawley, Oral, Feed, dose end: 105 week, group: systemic.
Data set [9] has as its system dog. The following applies: Subchronic oral toxicity in nonrodent, beagle, Feed, dose end: 6 month, group: systemic, systemic / clinical chemistry / alkaline phosphatase (alp/alk) / alkaline phosphatase (alp/alk) + systemic / organ weight / liver / absolute….
Data set [10] has as its system dog. The following applies: Chronic toxicity, beagle, Oral, Feed, dose end: 6 month, group: systemic.
For data set [11], the system named is rat. The following applies: Subchronic oral toxicity in rodents, Feed, dose end: 90 day, group: systemic.
In data set [12] the test system is mouse. The following applies: Carcinogenicity, cd1, Oral, Feed, dose end: 82 week, group: systemic.
For data set [13], the system named is rat. The following applies: Subchronic oral toxicity in rodents, sprague dawley, Feed, dose end: 90 day, group: systemic.
The subject of data set [14] is rat. The following applies: Multigenerational reproductive toxicity study, other, Oral, Feed, dose end: 2 generation.
For data set [15], the system named is dog. The following applies: Subchronic oral toxicity in nonrodent, beagle, Capsule, dose end: 90 day, group: systemic, systemic / clinical chemistry / albumin-globulin ratio / albumin-globulin ratio + systemic / clinical chemistry / cholesterol / cholesterol….
Data set [16] relates to dog. The following applies: Chronic toxicity; beagle; Oral; Capsule; dose end: 52 week; group: systemic; systemic / in life observation / clinical signs / abnormal movements + systemic / in life observation / clinical signs / altered breathing ….
Data set [17] relates to rat. The following applies: Combined chronic toxicity/carcinogenicity, fischer, Oral, Feed, dose end: 24 month, group: systemic.
Data set [18] concerns mouse. The following applies: Subchronic oral toxicity in rodents, cd1, Feed, dose end: 13 week, group: systemic.
Data set [19] deals with rat. The following applies: Subchronic oral toxicity in rodents, sprague dawley, Feed, dose end: 13 week, group: systemic, systemic / in life observation / body weight / body weight + systemic / in life observation / body weight / body weight gain + systemic / in….
Data set [20] relates to rat. The following applies: Subchronic oral toxicity in rodents, sprague dawley, Feed, dose end: 3 month, group: systemic, systemic / in life observation / body weight / body weight + systemic / in life observation / body weight / body weight gain.
Data set [21] concerns dog. The following applies: Subchronic oral toxicity in nonrodent, beagle, Feed, dose end: 16 week, group: systemic, systemic / in life observation / body weight / body weight.
Setting [22] is: systemic / in life observation / body weight / body weight gain + systemic / in life observation / food consumption / food efficiency + ….
The mark [23] stands for this setting: group: developmental, developmental / developmental malformation / bone / delayed ossification + developmental / developmental malformation / bone / supernumerary….
Where [24] appears, read: group: maternal, reproductive / reproductive performance / postimplantation loss / postimplantation loss + reproductive / reproductive performance / ….
Where [25] appears, read: group: maternal, systemic / clinical chemistry / [other] / [other] + systemic / organ weight / liver / absolute + systemic / organ weight / liver / relative ….
Where [26] appears, read: systemic / organ weight / liver / absolute + systemic / organ weight / liver / relative to body weight.
The mark [27] stands for this setting: systemic / organ weight / liver / absolute + systemic / organ weight / liver / relative to body weight + systemic / clinical chemistry / ….
Where [28] appears, read: group: developmental, developmental / developmental malformation / bone / absent + developmental / developmental malformation / bone / incomplete ossification + ….
Setting [29] is: group: maternal, systemic / in life observation / clinical signs / convulsions + systemic / in life observation / clinical signs / fur (altered appearance….
[30] abbreviates: systemic / pathology microscopic / liver / vacuolization.
[31] abbreviates: systemic / pathology microscopic / liver / vacuolization + systemic / organ weight / liver / absolute + systemic / organ weight / liver / ….
[32] abbreviates: systemic / clinical chemistry / alkaline phosphatase (alp/alk) / alkaline phosphatase (alp/alk) + systemic / hematology / erythrocyte (rbc) ….
Setting [33] is: systemic / organ weight / liver / absolute + systemic / organ weight / liver / relative to body weight + systemic / pathology microscopic / ….
Setting [34] is: systemic / in life observation / body weight / body weight gain.
Where [35] appears, read: systemic / clinical chemistry / albumin / albumin + systemic / clinical chemistry / cholesterol / cholesterol + systemic / clinical ….
[36] abbreviates: group: offspring, systemic / in life observation / body weight / offspring (pup) weight.
Setting [37] is: group: parental, systemic / in life observation / body weight / body weight + systemic / in life observation / body weight / body weight gain + systemic / ….
[38] abbreviates: systemic / organ weight / thyroid gland / absolute + systemic / organ weight / thyroid gland / relative to body weight.
Where [39] appears, read: systemic / clinical chemistry / creatinine / creatinine.

`Cn1sc2c(c1=O)CCC2` [2-Methyl-5,6-dihydro-2H-cyclopenta[d][1,2]thiazol-3(4H)-one]: the lowest-observed-adverse-effect level (LOAEL) in the data set with rat [1] (systemic / in life observation / body weight / body weight gain + systemic / in life observation / food consumption / food efficiency) stood at 23.2 mg/kg/day. In the data set with rat [1] (setting [22]), the LEL was determined as 23.2 mg/kg/day, the NEL came to 4.6 mg/kg/day and the NOAEL is 4.6 mg/kg/day.
As to `CCCCCCOC(=O)c1ccccc1C(=O)OCCCCCC` [Dihexyl phthalate], in the data set with rat [2], the LEL was found to be 1000 mg/kg/day, the LOAEL is > 1000 mg/kg/day, the NEL was < 1000 mg/kg/day and the NOAEL is ≥ 1000 mg/kg/day. Also, in the data set on rat [3] (setting [23]), the LEL was 250 mg/kg/day, the LOAEL was determined as 250 mg/kg/day, the NEL is < 250 mg/kg/day and the NOAEL was < 250 mg/kg/day. Further, in the data set on rat [3] (setting [24]), the LOAEL was > 750 mg/kg/day and the NOAEL was ≥ 750 mg/kg/day. In the data set with rat [3] (setting [25]), the LEL stood at 250 mg/kg/day and the NEL was < 250 mg/kg/day.
`NC(=O)NO` [Hydroxyurea]: in the data set on rat [4], the LEL was found to be 2000 mg/kg/day, the LOAEL was > 2000 mg/kg/day, the NEL was < 2000 mg/kg/day and the NOAEL is ≥ 2000 mg/kg/day.
As to `COCC(=O)N(c1c(C)cccc1C)C(C)C(=O)OC` (stereo unspecified) [Metalaxyl], the LEL in the data set with mouse [5] was 129 mg/kg/day; in the data set on mouse [6] (setting [26]), 188 mg/kg/day; in the data set on rat [7] (setting [28]), 400 mg/kg/day; in the data set with rat [7] (setting [29]), 250 mg/kg/day; in the data set with rat [8] (setting [30]), 1.88 mg/kg/day; with dog [9], 30.6 mg/kg/day. Also, the values for the LEL in the data set with dog [10] (setting [32]) and with rat [11] (setting [26]) were 30.6 mg/kg/day and 2.5 mg/kg/day, respectively. Moreover, the LOAEL was 129 mg/kg/day in the data set on mouse [5]; > 750 mg/kg/day in the data set with mouse [6] (setting [27]); 400 mg/kg/day in the data set with rat [7] (setting [28]); 250 mg/kg/day in the data set on rat [7] (setting [29]); 46.6 mg/kg/day with rat [8] (setting [31]); 30.6 mg/kg/day in the data set with dog [9]. Moreover, the LOAEL in the data set with dog [10] (systemic / clinical chemistry / alkaline phosphatase (alp/alk) / alkaline phosphatase (alp/alk)) is 30.6 mg/kg/day; with rat [11] (setting [33]), > 62.5 mg/kg/day. Further, the NEL with mouse [5] is 24.9 mg/kg/day; in the data set on mouse [6] (setting [26]) it was < 188 mg/kg/day; with rat [7] (setting [28]), 250 mg/kg/day; in the data set with rat [7] (setting [29]) it was 50 mg/kg/day; in the data set on rat [8] (setting [30]), < 1.88 mg/kg/day; in the data set on dog [9] it was 7.8 mg/kg/day. Further, the figures for the NEL in the data set with dog [10] (setting [32]) and in the data set on rat [11] (setting [26]) were 7.8 mg/kg/day and < 2.5 mg/kg/day, respectively. The NOAEL in the data set with mouse [5] is 24.9 mg/kg/day; in the data set on mouse [6] (setting [27]) it was ≥ 750 mg/kg/day; with rat [7] (setting [28]) it was 250 mg/kg/day; in the data set with rat [7] (setting [29]), 50 mg/kg/day; in the data set on rat [8] (setting [31]), 9.43 mg/kg/day; in the data set on dog [9], 7.8 mg/kg/day. Further, the NOAEL in the data set on dog [10] (setting [32]) is 7.8 mg/kg/day; with rat [11] (setting [33]) it was ≥ 62.5 mg/kg/day.
Consider `C#CCC1=C(C)C(OC(=O)C2C(C=C(C)C)C2(C)C)CC1=O` (stereo unspecified) [Prallethrin], for which the LOAEL in the data set on mouse [12] (setting [34]) amounted to 347 mg/kg/day; in the data set on rat [13] (setting [35]), 230 mg/kg/day; with rat [14] (setting [36]), 156 mg/kg/day; in the data set on rat [14] (setting [37]) it was 156 mg/kg/day; in the data set on dog [15], 10 mg/kg/day; in the data set with dog [16], 5 mg/kg/day. The LOAEL in the data set on rat [17] (setting [34]) turned out to be 83.5 mg/kg/day; with mouse [18] (systemic / in life observation / body weight / body weight + systemic / in life observation / body weight / body weight gain), 1840 mg/kg/day. Further, the NOAEL with mouse [12] (systemic / in life observation / body weight / body weight gain + systemic / organ weight / liver / nos) is 68 mg/kg/day; in the data set on rat [13] (setting [35]) it was 79.1 mg/kg/day; in the data set with rat [14] (setting [36]), 31 mg/kg/day; in the data set on rat [14] (setting [37]) it was 31 mg/kg/day; in the data set on dog [15] it was 3 mg/kg/day; with dog [16] it was 2.5 mg/kg/day. The no-observed-adverse-effect level (NOAEL) with rat [17] (systemic / in life observation / body weight / body weight gain + systemic / clinical chemistry / cholesterol / cholesterol + systemic / …) was found to be 16.3 mg/kg/day; with mouse [18] (systemic / in life observation / body weight / body weight + systemic / in life observation / body weight / body weight gain + systemic / …), 808 mg/kg/day. Moreover, the LEL in the data set with mouse [12] (systemic / in life observation / clinical signs / fur (altered appearance)) was 68 mg/kg/day; with rat [13] (systemic / clinical chemistry / protein / protein + systemic / organ weight / kidney / absolute + systemic / hematology / eosinophils / …) it was 79.1 mg/kg/day; in the data set on rat [14] (setting [36]) it was 156 mg/kg/day; with rat [14] (group: parental, systemic / in life observation / body weight / body weight gain) it was 31 mg/kg/day; with dog [15] it was 10 mg/kg/day; in the data set with dog [16], 5 mg/kg/day. For the same molecule, the LEL was determined as 4 mg/kg/day in the data set with rat [17] (setting [38]) and 39 mg/kg/day with mouse [18] (setting [39]). For the same molecule, the NEL in the data set with mouse [12] (systemic / in life observation / clinical signs / fur (altered appearance) + systemic / organ weight / kidney / nos + systemic / organ …) was 13 mg/kg/day; with rat [13] (setting [35]), 24 mg/kg/day; with rat [14] (setting [36]), 31 mg/kg/day; with rat [14] (setting [37]), 6 mg/kg/day; with dog [15] it was 3 mg/kg/day; in the data set with dog [16] it was 2.5 mg/kg/day. Besides, the NEL is < 4 mg/kg/day in the data set with rat [17] (setting [38]) and < 39 mg/kg/day in the data set with mouse [18] (setting [39]).
For `CCc1cccc(C)c1N(C(=O)CCl)[C@@H](C)COC` [S-Metolachlor], in the data set on rat [19], the LEL worked out at 150 mg/kg/day, the LOAEL was found to be 150 mg/kg/day, the NEL turned out to be 15 mg/kg/day and the NOAEL stood at 15 mg/kg/day. Moreover, in the data set with rat [20], the LEL turned out to be 259 mg/kg/day, the LOAEL is 259 mg/kg/day, the NEL stood at 23.4 mg/kg/day and the NOAEL is 23.4 mg/kg/day. Also, in the data set on dog [21], the LEL was 31.1 mg/kg/day, the LOAEL was > 62 mg/kg/day, the NEL worked out at 15.1 mg/kg/day and the NOAEL is ≥ 62 mg/kg/day.
